38 compounds from patent US20180116220A1, “NOVEL TRIAZOLE DERIVATIVES” (BAYER CROPSCIENCE AKTIENGESELLSCHAFT, priority 2015, published 2018) can be followed below.

Marks after values point to notes of the source that are not given here.

Data set [1] concerns Phakopsora pachyrhizi. The data set is described as follows: Example S: in vivo preventive Phakopsora test (soybeans); comparison vs. known compounds. The note with it: rate of application 5 ppm, evaluated 7 days after inoculation. How it is done: The test is evaluated 7 days after the inoculation.
Data set [2] deals with Venturia inaequalis. The data set is described as follows: Example R: in vivo preventive Venturia test (apples); comparison vs. known compounds. The note with it: rate of application 10 ppm, evaluated 10 days after inoculation.
Description: • Solvent: 24.5 parts by weight of acetone • 24.5 parts by weight of dimethylacetamide • Emulsifier: 1 part by weight of alkylaryl polyglycol ether
After the spray coating has dried on, the plants are inoculated with an aqueous conidia suspension of the causal agent of apple scab (Venturia inaequalis) and then remain for 1 day in an incubation cabinet at approximately 20° C. and a relative atmospheric humidity of 100%.
The plants are then placed in a greenhouse at approximately 21° C. and a relative atmospheric humidity of approximately 90%.
The test is evaluated 10 days after the inoculation.
A short description of data set [3]: LogP by HPLC on reversed phase columns (EEC directive 79/831 Annex V.A8). Type of data set: physicochemical. The note with it: for chromatographic logP: reversed phase HPLC column. How it is done:
[table] If more than one LogP value is available within the same method, all the values are given and separated by “+”. […] Lambda-max-values were determined using UV-spectra from 200 nm to 400 nm and the peak values of the chromatographic signals. Measurement of LogP values was performed as outlined above.

Where [4] appears, read: [a] LC-UV, acidic range, 0.1% formic acid in water and acetonitrile as eluent.
The mark [5] stands for this setting: [b] LC-UV, neutral range, 0.001 molar ammonium acetate solution in water and acetonitrile as eluent.

On to `OC(Cn1cncn1)(c1ccc(F)cc1F)C1(Oc2ccc(Cl)cc2)CC1` (stereo not drawn) [Example I-10, 1-[1-(4-chlorophenoxy)cyclopropyl]-1-(2,4-difluorophenyl)-2-(1H-1,2,4-triazol-1-yl)ethanol], for which the values for the Efficacy in % in data set [1] and in data set [2] were 95% and 100%, respectively. Further, the chromatographic logP (commonly lipophilicity estimated from chromatographic retention) in data set [3] (setting [4]) was 3.48.
Take `N#Cc1cc(I)ccc1OC1(C2(c3ccc(F)cc3F)CO2)CC1` (stereo not drawn) [Example V-13]: the LogP (commonly a log measure of how a compound divides between an organic and an aqueous phase) in data set [3] (setting [4]) is listed as 4.14; in data set [3] (setting [5]), 4.21.
On the same counts, the results for `Cc1cc(Br)ccc1OC1(C2(c3ccc(F)cc3F)CO2)CC1` (stereo not drawn) [Example V-14] are 5.25^[a]; 5.25^[b] and 5.25^[a]; 5.25^[b].
For `Fc1ccc(C2(C3(Oc4ccc(OC(F)(F)F)cc4)CC3)CO2)c(F)c1` (stereo not drawn) [Example V-15] the same measures were 4.70 and 4.86.
On to `Fc1ccc(C2(C3(Oc4ccc(SC(F)(F)F)cc4)CC3)CO2)c(F)c1` (stereo not drawn) [Example V-16], for which the LogP is on record as 5.23 in data set [3] (setting [4]) and 5.24 in data set [3] (setting [5]).
Consider `Fc1ccc(OC2(C3(c4ccc(Cl)cc4F)CO3)CC2)c(F)c1` (stereo not drawn) [Example V-17], for which, in data set [3] (setting [4]), the LogP was 4.56^[a].
The same measure, in the same setting: next, `Fc1ccc(C2(C3(Oc4c(F)cccc4F)CC3)CO2)c(F)c1` (stereo not drawn) [Example V-18]: 4.11^[a].
As for `Fc1ccc(C2(C3(Oc4c(Cl)cccc4Cl)CC3)CO2)c(F)c1` (stereo not drawn) [Example V-19], the LogP in data set [3] (setting [4]) is 4.80^[a].
On the same count and under the same terms, next, `Fc1ccc(C2(C3(Oc4c(F)cccc4Cl)CC3)CO2)c(F)c1` (stereo not drawn) [Example V-20]: 4.49^[a]; `Fc1ccc(C2(C3(Oc4c(F)cccc4Br)CC3)CO2)c(F)c1` (stereo not drawn) [Example V-21]: 4.59^[a].
As for `O=C(c1ccc(F)cc1F)C1(Oc2ccc(Br)cc2)CC1` [IV-1, [1-(4-bromophenoxy)cyclopropyl](2,4-difluorophenyl)methanone], the chromatographic logP in data set [3] (setting [4]) amounted to 4.32.
Regarding `O=C(c1ccc(F)cc1F)C1(Oc2ccc(Cl)cc2)CC1` [IV-2], the LogP in data set [3] (setting [4]) is 4.22^[a].
For the compound `O=C(c1ccc(F)cc1F)C1(Oc2ccc(Cl)cc2F)CC1` [IV-3], the values for the LogP in data set [3] (setting [4]) and in data set [3] (setting [5]) were 4.23 and 4.24, respectively.
On the same counts, the results for `O=C(c1ccc(F)cc1F)C1(Oc2ccc(F)cc2Cl)CC1` [IV-4] are 4.21^[a]; 4.21^[b] and 4.21^[a]; 4.21^[b].
With `O=C(c1ccc(F)cc1F)C1(Oc2ccccc2F)CC1` [IV-5], the LogP in data set [3] (setting [4]) is 3.73^[a].
Take `O=C(c1ccc(F)cc1F)C1(Oc2ccccc2Br)CC1` [IV-6]: the lipophilicity (LogP) in data set [3] (setting [4]) turned out to be 4.14; in data set [3] (setting [5]), 4.19.
On the same counts, the results for `O=C(c1ccc(F)cc1F)C1(Oc2cccc(Br)c2)CC1` [IV-7] are 4.32 and 4.36.
For `O=C(c1ccc(F)cc1F)C1(Oc2ccccc2I)CC1` [IV-8] the same measures were 4.35 and 4.40.
As for `O=C(c1ccc(F)cc1F)C1(Oc2cccc(I)c2)CC1` [IV-9], the LogP is recorded as 4.50 in data set [3] (setting [4]) and 4.53 in data set [3] (setting [5]).
As for `O=C(c1ccc(F)cc1F)C1(Oc2ccc(I)cc2)CC1` [IV-10], the values for the LogP in data set [3] (setting [4]) and in data set [3] (setting [5]) were 4.54 and 4.57, respectively.
For `O=C(c1ccc(F)cc1F)C1(Oc2ccc(Br)cc2F)CC1` [IV-11] the same measures were 4.33 and 4.36.
As for `Cc1cc(I)ccc1OC1(C(=O)c2ccc(F)cc2F)CC1` [IV-12], the LogP is 5.06 in data set [3] (setting [4]) and 5.08 in data set [3] (setting [5]).
`N#Cc1cc(I)ccc1OC1(C(=O)c2ccc(F)cc2F)CC1` [IV-13]: the LogP in data set [3] (setting [4]) was found to be 3.90; in data set [3] (setting [5]), 3.92.
For `Cc1cc(Br)ccc1OC1(C(=O)c2ccc(F)cc2F)CC1` [IV-14] the same measures were 4.88 and 4.87.
As to `O=C(c1ccc(F)cc1F)C1(Oc2ccc(OC(F)(F)F)cc2)CC1` [IV-15], the results for the LogP in data set [3] (setting [4]) and in data set [3] (setting [5]) were 4.49 and 4.53, respectively.
Consider `O=C(c1ccc(F)cc1F)C1(Oc2ccc(SC(F)(F)F)cc2)CC1` [IV-16], for which the LogP in data set [3] (setting [4]) was 4.86; in data set [3] (setting [5]), 4.92.
Consider `O=C(c1ccc(F)cc1F)C1(Oc2c(F)cccc2F)CC1` [IV-17], for which the LogP in data set [3] (setting [4]) was 3.87^[a].
Regarding `O=C(c1ccc(F)cc1F)C1(Oc2c(Cl)cccc2Cl)CC1` [IV-18], the lipophilicity (LogP) in data set [3] (setting [4]) was 4.59^[a].
The same measure, in the same setting: next, `O=C(c1ccc(F)cc1F)C1(Oc2c(F)cccc2Cl)CC1` [IV-19]: 4.26^[a]; `O=C(c1ccc(F)cc1F)C1(Oc2c(F)cccc2Br)CC1` [IV-20]: 4.34^[a]; `O=C(c1ccc(Cl)cc1F)C1(Oc2ccc(Cl)cc2)CC1` [IV-21]: 4.75^[a].
The same measure, in the same setting: next, `O=C(c1ccc(Cl)cc1F)C1(Oc2ccc(Cl)cc2F)CC1` [IV-22]: 4.72^[a]; `O=C(c1ccc(F)cc1F)C1(Oc2ccc(C(F)(F)F)cc2)CC1` [IV-23]: 4.44^[a].
Take `O=C(c1ccc(F)cc1F)C1(Oc2cccc(Cl)c2)CC1` [IV-24]: in data set [3] (setting [4]), the LogP was 4.34^[a].
Still for that read-out and setting: next, `O=C(c1ccc(F)cc1F)C1(Oc2ccc(Cl)c(F)c2)CC1` [IV-25]: 4.41^[a]; `O=C(c1ccc(F)cc1F)C1(Oc2ccc(Br)c(F)c2)CC1` [IV-26]: 3.99^[a]; `O=C(c1ccc(F)cc1F)C1(Oc2ccc(OC(F)F)cc2)CC1` [IV-27]: 3.94^[a].
On the same count and under the same terms, next, `O=C(c1ccc(F)cc1F)C1(Oc2cccc(Cl)c2F)CC1` [IV-28]: 4.21^[a].
